Tested on: MV-4-11 cells
Experiment: Gene expression microarray analysis (Affymetrix PrimeView) and GSEA
Format: cell-based, human
Set-up: RFU PODN (11730768_x_at) / Fold change /veh PODN (11730768_x_at) / RFU LINC00158 (11744669_a_at) / Fold change /veh LINC00158 (11744669_a_at) / RFU DUSP10 (11751237_a_at) / Fold change /veh DUSP10 (11751237_a_at) / RFU ID3 (11757404_x_at) / Fold change /veh ID3 (11757404_x_at) / RFU PLEKHG5 (11737974_s_at) / Fold change /veh PLEKHG5 (11737974_s_at) / RFU LRRC4B (11730491_at) / Fold change /veh LRRC4B (11730491_at) / RFU GIMAP4 (11747438_a_at) / Fold change /veh GIMAP4 (11747438_a_at) / RFU KRT8 (11758183_x_at) / Fold change /veh KRT8 (11758183_x_at) / RFU CNN1 (11734310_a_at) / Fold change /veh CNN1 (11734310_a_at) / RFU VPS37D (11726825_at) / Fold change /veh VPS37D (11726825_at) / RFU C10orf10 (11716522_x_at) / Fold change /veh C10orf10 (11716522_x_at) / RFU KIR2DL2 /// KIR2DL4 /// KIR2DL5A /// KIR2DL5B /// KIR2DS1 /// KIR2DS2 /// KIR2DS3 /// KIR2DS4 /// KIR3DL3 /// KIR3DL3 /// KIR3DS1 (11738374_at) / Fold change /veh KIR2DL2 /// KIR2DL4 /// KIR2DL5A /// KIR2DL5B /// KIR2DS1 /// KIR2DS2 /// KIR2DS3 /// KIR2DS4 /// KIR3DL3 /// KIR3DL3 /// KIR3DS1 (11738374_at) / RFU C1QL1 (11718748_at) / Fold change /veh C1QL1 (11718748_at) / RFU TMPRSS4 (11747572_a_at) / Fold change /veh TMPRSS4 (11747572_a_at) / RFU HAMP (11756126_x_at) / Fold change /veh HAMP (11756126_x_at) / RFU RNFT2 (11725882_a_at) / Fold change /veh RNFT2 (11725882_a_at) / RFU NR4A2 (11747474_a_at) / Fold change /veh NR4A2 (11747474_a_at) / RFU ABCC12 (11746883_a_at) / Fold change /veh ABCC12 (11746883_a_at) / RFU TMEM136 (11760407_x_at) / Fold change /veh TMEM136 (11760407_x_at) / RFU CLDN22 /// WWC2 (11732394_at) / Fold change /veh CLDN22 /// WWC2 (11732394_at) / RFU HLA-DPB1 (11760878_x_at) / Fold change /veh HLA-DPB1 (11760878_x_at) / RFU SPINT1 (11716480_a_at) / Fold change /veh SPINT1 (11716480_a_at) / RFU GAP43 (11754022_s_at) / Fold change /veh GAP43 (11754022_s_at) / RFU A4GNT (11735810_at) / Fold change /veh A4GNT (11735810_at) / RFU PRB3 (11715151_x_at) / Fold change /veh PRB3 (11715151_x_at) / RFU TUBB4B (11761932_at) / Fold change /veh TUBB4B (11761932_at) / RFU CAPN14 (11732068_a_at) / Fold change /veh CAPN14 (11732068_a_at) / RFU TMCC2 (11721928_a_at) / Fold change /veh TMCC2 (11721928_a_at) / RFU IRGQ (11745062_a_at) / Fold change /veh IRGQ (11745062_a_at) / RFU FAM174B (11720279_a_at) / Fold change /veh FAM174B (11720279_a_at) / RFU TMPRSS4 (11748680_a_at) / Fold change /veh TMPRSS4 (11748680_a_at) / RFU FAM212B (11763350_a_at) / Fold change /veh FAM212B (11763350_a_at) / RFU PLEKHG5 (11743358_a_at) / Fold change /veh PLEKHG5 (11743358_a_at) / RFU ZSCAN30 (11745921_a_at) / Fold change /veh ZSCAN30 (11745921_a_at) / RFU CMKLR1 (11741424_a_at) / Fold change /veh CMKLR1 (11741424_a_at) / RFU LOC101060620 /// MAPK8IP1 (11723275_at) / Fold change /veh LOC101060620 /// MAPK8IP1 (11723275_at) / RFU SPTSSB (11747773_x_at) / Fold change /veh SPTSSB (11747773_x_at) / RFU PRSS12 (11739890_at) / Fold change /veh PRSS12 (11739890_at) / RFU BIN1 (11741810_x_at) / Fold change /veh BIN1 (11741810_x_at) / RFU WNT11 (11732464_a_at) / Fold change /veh WNT11 (11732464_a_at) / RFU C10orf10 (11716521_a_at) / Fold change /veh C10orf10 (11716521_a_at) / RFU C5orf56 (11738089_at) / Fold change /veh C5orf56 (11738089_at) / RFU CYB561 (11721691_x_at) / Fold change /veh CYB561 (11721691_x_at) / RFU ANKRD19P (11752326_a_at) / Fold change /veh ANKRD19P (11752326_a_at) / RFU OR2T12 /// OR2T33 /// OR2T8 (11738714_s_at) / Fold change /veh OR2T12 /// OR2T33 /// OR2T8 (11738714_s_at) / RFU VCAN (11748164_a_at) / Fold change /veh VCAN (11748164_a_at) / RFU JSRP1 (11732532_at) / Fold change /veh JSRP1 (11732532_at) / RFU KRTAP10-11 (11738290_x_at) / Fold change /veh KRTAP10-11 (11738290_x_at) / RFU MYO3A (11730013_a_at) / Fold change /veh MYO3A (11730013_a_at) / RFU EBF3 (11725865_a_at) / Fold change /veh EBF3 (11725865_a_at) / RFU CAMK2N1 (11719241_x_at) / Fold change /veh CAMK2N1 (11719241_x_at) / RFU C5orf56 (11738088_a_at) / Fold change /veh C5orf56 (11738088_a_at) / RFU OLFML3 (11715873_a_at) / Fold change /veh OLFML3 (11715873_a_at) / RFU LOC100653217 /// NTM (11731650_a_at) / Fold change /veh LOC100653217 /// NTM (11731650_a_at) / RFU MAPK11 (11762145_a_at) / Fold change /veh MAPK11 (11762145_a_at) / RFU FIZ1 (11724087_x_at) / Fold change /veh FIZ1 (11724087_x_at) / RFU OASL (11726364_x_at) / Fold change /veh OASL (11726364_x_at) / RFU SOX15 (11748057_x_at) / Fold change /veh SOX15 (11748057_x_at) / RFU CD79A (11719716_a_at) / Fold change /veh CD79A (11719716_a_at) / RFU HIST1H1D (11736915_at) / Fold change /veh HIST1H1D (11736915_at) / RFU CASKIN2 (11723855_a_at) / Fold change /veh CASKIN2 (11723855_a_at) / RFU LOC730098 (11760151_x_at) / Fold change /veh LOC730098 (11760151_x_at) / RFU OR4N2 (11742367_at) / Fold change /veh OR4N2 (11742367_at) / RFU PRRT2 (11749266_a_at) / Fold change /veh PRRT2 (11749266_a_at) / RFU SNX32 (11753110_a_at) / Fold change /veh SNX32 (11753110_a_at) / RFU CDHR5 (11726645_a_at) / Fold change /veh CDHR5 (11726645_a_at) / RFU RCAN1 (11760418_a_at) / Fold change /veh RCAN1 (11760418_a_at) / RFU FAM167A (11723789_a_at) / Fold change /veh FAM167A (11723789_a_at) / RFU FAM26E (11764081_at) / Fold change /veh FAM26E (11764081_at) / RFU ISYNA1 (11749810_s_at) / Fold change /veh ISYNA1 (11749810_s_at) / RFU ACY1 (11761880_at) / Fold change /veh ACY1 (11761880_at) / RFU 11764098_at / Fold change /veh 11764098_at / RFU SAMD14 (11745864_x_at) / Fold change /veh SAMD14 (11745864_x_at) / RFU NPB (11741838_a_at) / Fold change /veh NPB (11741838_a_at) / RFU TMPRSS6 (11731388_a_at) / Fold change /veh TMPRSS6 (11731388_a_at) / RFU KRTAP10-2 (11738614_at) / Fold change /veh KRTAP10-2 (11738614_at) / RFU ARHGAP8 /// PRR5-ARHGAP8 (11727945_x_at) / Fold change /veh ARHGAP8 /// PRR5-ARHGAP8 (11727945_x_at) / RFU KRTAP5-7 /// NADSYN1 (11734609_at) / Fold change /veh KRTAP5-7 /// NADSYN1 (11734609_at) / RFU RASL12 (11751679_a_at) / Fold change /veh RASL12 (11751679_a_at) / RFU CDKN2B (11736163_a_at) / Fold change /veh CDKN2B (11736163_a_at) / RFU PRF1 (11729649_at) / Fold change /veh PRF1 (11729649_at) / RFU, ZNF638 /// ZNF638-IT1 / Fold change vs veh, ZNF638 /// ZNF638-IT1 / RFU, PANK3 / Fold change vs veh, PANK3 / RFU, SH3YL1 / Fold change vs veh, SH3YL1 / RFU, ZEB2 / Fold change vs veh, ZEB2 / RFU, NRIP1 / Fold change vs veh, NRIP1 / RFU, PTTG1IP / Fold change vs veh, PTTG1IP / RFU, CAPN2 / Fold change vs veh, CAPN2 / RFU, MED14 / Fold change vs veh, MED14 / RFU, SNORA58 / Fold change vs veh, SNORA58 / RFU, C1orf63 / Fold change vs veh, C1orf63 / RFU, LRRFIP1 / Fold change vs veh, LRRFIP1 / RFU, NDUFAF7 / Fold change vs veh, NDUFAF7 / RFU, SLC12A2 / Fold change vs veh, SLC12A2 / RFU, IBTK / Fold change vs veh, IBTK / RFU, ESF1 / Fold change vs veh, ESF1 / Fold change vs veh, TMEM50B / RFU, TAOK1 / Fold change vs veh, TAOK1 / RFU, ACBD3 / Fold change vs veh, ACBD3 / RFU, TMA16 / Fold change vs veh, TMA16 / RFU, RWDD3 / Fold change vs veh, RWDD3 / RFU, BCAT1 / Fold change vs veh, BCAT1 / RFU, EDEM3 / Fold change vs veh, EDEM3 / RFU, TMEM33 / Fold change vs veh, TMEM33 / RFU, WDR75 / Fold change vs veh, WDR75 / RFU, AHCTF1 / Fold change vs veh, AHCTF1 / RFU, TFRC / Fold change vs veh, TFRC / RFU, ZDHHC17 / Fold change vs veh, ZDHHC17 / RFU, NOM1 / Fold change vs veh, NOM1 / RFU, ARL8B / Fold change vs veh, ARL8B / RFU, ZBTB11 / Fold change vs veh, ZBTB11 / RFU, TAMM41 / Fold change vs veh, TAMM41 / RFU, KIAA1704 /// LOC100996395 / Fold change vs veh, KIAA1704 /// LOC100996395 / RFU, ING1 / Fold change vs veh, ING1 / RFU, TRMT61B / Fold change vs veh, TRMT61B / RFU, FUBP3 / Fold change vs veh, FUBP3 / RFU, TP53 / Fold change vs veh, TP53 / RFU, TNKS2 / Fold change vs veh, TNKS2 / RFU, ZFP14 / Fold change vs veh, ZFP14 / RFU, ACTR2 / Fold change vs veh, ACTR2 / RFU, PPP3R1 / Fold change vs veh, PPP3R1 / RFU, PIK3R1 / Fold change vs veh, PIK3R1 / RFU, HNRNPA1 / Fold change vs veh, HNRNPA1 / RFU, RNF170 / Fold change vs veh, RNF170 / RFU, ZNF28 / Fold change vs veh, ZNF28 / RFU, RNGTT / Fold change vs veh, RNGTT / RFU, OGT / Fold change vs veh, OGT / RFU, BRD1 / Fold change vs veh, BRD1 / RFU, MARS / Fold change vs veh, MARS / RFU, ZNF655 / Fold change vs veh, ZNF655 / RFU, FAHD1 / Fold change vs veh, FAHD1 / RFU, BDP1 / Fold change vs veh, BDP1 / RFU, LRRCC1 / Fold change vs veh, LRRCC1 / RFU, ARID1A / Fold change vs veh, ARID1A / RFU, ZNF146 / Fold change vs veh, ZNF146 / RFU, ZNF330 / Fold change vs veh, ZNF330 / RFU, GPN3 / Fold change vs veh, GPN3 / RFU, C9orf123 / Fold change vs veh, C9orf123 / RFU, N4BP2L2 / Fold change vs veh, N4BP2L2 / RFU, ARFIP1 / Fold change vs veh, ARFIP1 / RFU, FAM179B / Fold change vs veh, FAM179B / RFU, BCL10 / Fold change vs veh, BCL10 / RFU, UHRF1BP1L / Fold change vs veh, UHRF1BP1L / RFU, BET1 / Fold change vs veh, BET1 / RFU, CNOT2 / Fold change vs veh, CNOT2 / RFU, ZNF268 / Fold change vs veh, ZNF268 / Fold change vs veh, ZNF507 / RFU, DGCR2 / Fold change vs veh, DGCR2 / RFU, WDSUB1 / Fold change vs veh, WDSUB1 / Fold change vs veh, HSP90B1 /// MIR3652 / RFU, ADSS / Fold change vs veh, ADSS / RFU, GK / Fold change vs veh, GK / RFU, ZNF148 / Fold change vs veh, ZNF148 / RFU, TAF9 / Fold change vs veh, TAF9 / RFU, SLC1A5 / Fold change vs veh, SLC1A5 / RFU, SLMO2 / Fold change vs veh, SLMO2 / RFU, ABCC4 / Fold change vs veh, ABCC4 / RFU, LOC101060439 /// RAP1B / Fold change vs veh, LOC101060439 /// RAP1B / RFU, RFX7 / Fold change vs veh, RFX7 / RFU, GTPBP10 / Fold change vs veh, GTPBP10 / RFU, CNEP1R1 / Fold change vs veh, CNEP1R1 / RFU, BIVM-ERCC5 /// ERCC5 / Fold change vs veh, BIVM-ERCC5 /// ERCC5 / RFU, ILF3 / Fold change vs veh, ILF3 / RFU 11762660_at / Fold change /veh 11762660_at / RFU VCAN (11757783_s_at) / Fold change /veh VCAN (11757783_s_at) / RFU DDX43 (11728927_at) / Fold change /veh DDX43 (11728927_at) / RFU KRT8 (11758188_x_at) / Fold change /veh KRT8 (11758188_x_at) / RFU NKD1 (11759106_at) / Fold change /veh NKD1 (11759106_at) / RFU SRD5A1 (11742802_a_at) / Fold change /veh SRD5A1 (11742802_a_at) / RFU TPSAB1 /// TPSB2 (11721975_s_at) / Fold change /veh TPSAB1 /// TPSB2 (11721975_s_at) / RFU GSTM3 (11746129_a_at) / Fold change /veh GSTM3 (11746129_a_at) / RFU IL23R (11737362_x_at) / Fold change /veh IL23R (11737362_x_at) / RFU TMEM51 (11727254_a_at) / Fold change /veh TMEM51 (11727254_a_at) / RFU PIWIL2 (11732686_x_at) / Fold change /veh PIWIL2 (11732686_x_at) / RFU ORM1 (11744905_x_at) / Fold change /veh ORM1 (11744905_x_at) / RFU CCDC152 (11743942_at) / Fold change /veh CCDC152 (11743942_at) / RFU ECM1 (11717891_a_at) / Fold change /veh ECM1 (11717891_a_at) / RFU IL23R (11748794_a_at) / Fold change /veh IL23R (11748794_a_at) / RFU TNFAIP8L3 (11732012_x_at) / Fold change /veh TNFAIP8L3 (11732012_x_at) / RFU MBOAT4 (11741988_at) / Fold change /veh MBOAT4 (11741988_at) / RFU 11764193_at / Fold change /veh 11764193_at / RFU TMEM53 (11763286_at) / Fold change /veh TMEM53 (11763286_at) / RFU MAGEB2 (11727129_at) / Fold change /veh MAGEB2 (11727129_at) / RFU TMEM200A (11744735_a_at) / Fold change /veh TMEM200A (11744735_a_at) / RFU CCDC152 (11751479_a_at) / Fold change /veh CCDC152 (11751479_a_at) / RFU FAM211A (11726209_a_at) / Fold change /veh FAM211A (11726209_a_at) / RFU RGS16 (11746705_a_at) / Fold change /veh RGS16 (11746705_a_at) / RFU VCAN (11755009_s_at) / Fold change /veh VCAN (11755009_s_at) / RFU RHOB (11743442_s_at) / Fold change /veh RHOB (11743442_s_at) / RFU RGS16 (11720943_a_at) / Fold change /veh RGS16 (11720943_a_at) / RFU RGS16 (11720944_at) / Fold change /veh RGS16 (11720944_at) / RFU, VPS4B / Fold change vs veh, VPS4B / RFU, CREB1 / Fold change vs veh, CREB1 / RFU, DNAJC13 / Fold change vs veh, DNAJC13 / RFU, GNAQ / Fold change vs veh, GNAQ / RFU, CDK5R1 / Fold change vs veh, CDK5R1 / RFU, ZRANB3 / Fold change vs veh, ZRANB3 / RFU, CUL4A / Fold change vs veh, CUL4A / RFU, CCNY / Fold change vs veh, CCNY / RFU, UFL1 / Fold change vs veh, UFL1 / RFU, COG3 / Fold change vs veh, COG3 / RFU, DIAPH2 / Fold change vs veh, DIAPH2 / RFU, SKA2 / Fold change vs veh, SKA2 / RFU, AFF3 / Fold change vs veh, AFF3 / RFU, LMF1 / Fold change vs veh, LMF1 / RFU, IPO11 / Fold change vs veh, IPO11 / RFU, DFFB / Fold change vs veh, DFFB / RFU, FOXP1 / Fold change vs veh, FOXP1 / RFU, CARD8 / Fold change vs veh, CARD8 / RFU, STRN3 / Fold change vs veh, STRN3 / RFU, ADK / Fold change vs veh, ADK / RFU, RASSF2 / Fold change vs veh, RASSF2 / RFU, WIPF1 / Fold change vs veh, WIPF1 / RFU, LARP1B / Fold change vs veh, LARP1B / RFU, RASA1 / Fold change vs veh, RASA1 / RFU, RB1 / Fold change vs veh, RB1 / RFU, PPFIA1 / Fold change vs veh, PPFIA1 / RFU, MAT2A / Fold change vs veh, MAT2A / RFU, CCT5 / Fold change vs veh, CCT5 / RFU, WDR92 / Fold change vs veh, WDR92 / RFU, CUX1 / Fold change vs veh, CUX1 / RFU, TTC7A / Fold change vs veh, TTC7A / RFU, TMEM135 / Fold change vs veh, TMEM135 / RFU, DEPTOR / Fold change vs veh, DEPTOR / RFU, CPM / Fold change vs veh, CPM / RFU, DNAJB6 / Fold change vs veh, DNAJB6 / RFU, CACNA2D3 / Fold change vs veh, CACNA2D3 / RFU, DTX4 / Fold change vs veh, DTX4 / RFU, TFCP2 / Fold change vs veh, TFCP2 / RFU, GMCL1 /// GMCL1P1 / Fold change vs veh, GMCL1 /// GMCL1P1 / RFU, AEBP2 / Fold change vs veh, AEBP2 / RFU, SNHG1 /// SNORD22 /// SNORD25 /// SNORD26 /// SNORD27 /// SNORD28 /// SNORD29 /// SNORD31 / Fold change vs veh, SNHG1 /// SNORD22 /// SNORD25 /// SNORD26 /// SNORD27 /// SNORD28 /// SNORD29 /// SNORD31 / Fold change (Aza/veh), C12orf56 (ProbeSet 11735607_a_at) / Fold change (ACY-1035/veh), C12orf56 (ProbeSet 11735607_a_at) / Fold change (Aza/veh), FGFR1OP (ProbeSet 11751329_s_at) / Fold change (ACY-1035/veh), FGFR1OP (ProbeSet 11751329_s_at) / Fold change (Aza/veh), VPS36 (ProbeSet 11739960_a_at) / Fold change (ACY-1035/veh), VPS36 (ProbeSet 11739960_a_at) / RFU SYPL1 (11715823_x_at) / Fold change /veh SYPL1 (11715823_x_at) / RFU IGFBP7 (11715501_s_at) / Fold change /veh IGFBP7 (11715501_s_at) / RFU REEP3 (11722064_at) / Fold change /veh REEP3 (11722064_at) / RFU IGLL1 (11728026_x_at) / Fold change /veh IGLL1 (11728026_x_at): dose or concentration left out as unconfirmed
Settings: MV-4-11 cells, 48 hours

## Nc1ncn([C@@H]2O[C@H](CO)[C@@H](O)[C@H]2O)c(=O)n1 [azacitidine]
  Fold change /veh SYPL1 (11715823_x_at): 0.82

Source: article PMC5218480 (PLoS ONE, 2017)
